Consider 5 compounds from patent US11104881B2, “Method for highly efficient conversion of human stem cells to lineage-specific neurons” (THE JOHNS HOPKINS UNIVERSITY, priority 2013, dated 2021).

Entries after “also recorded” stand apart in the source; their conditions may differ.

The subject of data set [1] is Atoh1-induced neurons. In kind it is cell-based, human.
In data set [2] the test system is Atoh1-induced DA neurons derived from human iPSCs. It is filed as cell-based. The settings on record: 40 μM and 100 μM for 15 minutes. As to the method:
Neuron culture medium was changed to neurobasal medium before treatment. 6-OHDA was freshly prepared in vehicle solution (ascorbic acid (0.15%) in H2O) and quickly added to the neuron culture. Control cells were treated with vehicle solution alone. After 15 min at 37° C., the medium was removed and neurons were gently washed twice with Neurobasal Medium. 200 μl neuron culture medium (Neurobasal Medium with B27 Supplement) was added to each well and further incubated for 24 h. Cytotoxicity induced by 6-OHDA was measured using LDH Cytotoxicity Detection Kit (Roche) following the manufacturer's protocol. The percentage cytotoxicity was calculated using the following equation: Cytotoxicity (%)=(Experiment Value−Low Control)/(High Control−Low Control)×100. (Low control: culture medium; High control: total cell lysate).
6-hydroxydopamine (6-OHDA) is a neurotoxin widely used to induce neurotoxicity both in vivo and in vitro to model DA neuron loss in PD pathogenesis. […] Here, we tested the response of Atoh1-induced DA neurons to 6-OHDA treatment. […] Thus, Atoh1-induced DA neurons derived from human iPSCs are sensitive to 6-OHDA treatment at a concentration that selectively damages primary DA neurons isolated from substantia nigra.

Data set [3] has as its system primary DA neurons from substantia nigra. The settings on record: 6-OHDA 40 μM; cited from earlier work.
The next data set deals with Atoh1-iPSCs. Briefly: Dox-inducible Atoh1 expression measured by qRT-PCR. In kind it is cell-based, human. Conditions: Dox treatment for 2 days. As to the method: Total RNA was extracted using the RNeasy Mini kit (Qiagen). Reverse transcription was performed using MuLV reverse transcriptase (Applied biosystems) and Oligo(dT) primers. qRT-PCR was performed using SYBR Green PCR Master Mix (Applied Biosystems) and IQ5 RT-PCR detection system (Bio-rad). Relative expression of each gene was normalized to the 18S rRNA. To further optimize the Atoh1-mediated differentiation strategy, we asked what is the minimum time of Atoh1 induction for successful neuronal conversion. Equal numbers of Atoh1-iPSCs received different durations of Dox treatment (1 to 5 days), after which cells were replated and allowed to mature in vitro for additional 30 days. […] In contrast, Dox treatment for 2 to 5 days successfully differentiated iPSCs into neurons expressing TUJ1 and MAP2 (FIG. 9). […] To compare the level of neurogenic signaling before and after silencing ectopic Atoh1 expression, we treated Atoh1-iPSCs with Dox for 2 days and then withdrew Dox for 3 days (FIGS. 2J and 2K).

The subject of data set [4] is Atoh1-induced neurons. Briefly: Current-clamp recording, negative current injection: hyperpolarization sag and rebound action potentials. It is filed as cell-based, human. The settings on record: ML252 5 μM.
In another data set the test system is Atoh1-induced DA neurons. It is filed as cell-based, human.

As to `Nc1ccncc1` [4-AP], the “effect on potassium current” value in the data set on Atoh1-induced neurons [1] (4-AP 25 μM, together with TTX, voltage-clamp) is “significantly attenuated”. `NCCc1cc(O)c(O)cc1O` [6-OHDA, 6-hydroxydopamine]: in data set [2] (LDH after 24 h), the “neuron death by LDH Cytotoxicity assay” value was “neuron death was also confirmed”. The “morphological signs of neuron death (cell condensation, neurite fragmentation)” value in data set [2] (differentiation day 36, read 24 hours after treatment) is reported as “caused morphological signs of neuron death”. In addition, the “DA neuron loss in rat substantia nigra neuron cultures” value in data set [3] is given as “causes selective DA neuron loss without affecting GABA neurons”. For `C[C@H]1c2cccc(O)c2C(=O)C2=C(O)[C@]3(O)C(=O)C(C(N)=O)=C(O)[C@@H](N(C)C)[C@@H]3[C@@H](O)[C@@H]21` [Dox, Doxycycline], in the data set on Atoh1-iPSCs, the “Atoh1 up-regulation by qRT-PCR versus control” value came to 49 fold. Consider `CC[C@H](C(=O)Nc1ccccc1N1CCCC1)c1ccccc1` [ML252], for which, in the data set with Atoh1-induced neurons [4], the “effect on hyperpolarization sag and rebound action potentials” value is “dampened; also recorded: blocked”. On to `NC1=N[C@H](O)[C@H]2[C@H]3O[C@]4(O)O[C@@H]([C@@H](O)[C@@]2(N1)[C@@H]4O)[C@]3(O)CO` [TTX, tetrodotoxin], for which, in the data set with Atoh1-induced DA neurons, the “effect on train of evoked action potentials” value was “suppressed; also recorded: completely blocked” and the “time to recovery of action potentials after TTX washout” value came out at 17 min. The “effect on sodium current” value with Atoh1-induced neurons [1] is reported as “significantly attenuated”.
